Experimental data from ChEMBL document CHEMBL4610129, “Discovery of Novel Selective and Orally Bioavailable Phosphodiesterase-1 Inhibitors for the Efficient Treatment of Idiopathic Pulmonary Fibrosis” (J Med Chem, 2020).
Activity calls are given as the source filed them. The rule behind the calls is not given here.

Columns and labels:
[1] = biological target: T1, Dual specificity calcium/calmodulin-dependent 3',5'-cyclic nucleotide phosphodiesterase 1C (Homo sapiens, UniProt Q14123); test: Inhibition of PDE1C2 (147 to 531 residues) (unknown origin) using [3H]-cGMP substrate incubated for 15 mins by liquid scintillation counting method
[2] = Half life in rat liver microsomes; type: ADME, Microsome
[3] = biological target: T1, Dual specificity calcium/calmodulin-dependent 3',5'-cyclic nucleotide phosphodiesterase 1C; test: Inhibition of PDE1C2 (147 to 531 residues) (unknown origin) at 100 nM using [3H]-cGMP substrate incubated for 15 mins by liquid scintillation counting method relative to control
Rattus norvegicus [4] = test: Anti-pulmonary fibrosis activity in Sprague-Dawley rat model of BLM-induced idiopathic pulmonary fibrosis assessed as reduction in end-inspiratory pause at 150 mg/kg, po dosed daily for 28 days by mka noninvasive pulmonary monitoring system based method; type: functional, organism-based
Rattus norvegicus [5] = test: Anti-pulmonary fibrosis activity in Sprague-Dawley rat model of BLM-induced idiopathic pulmonary fibrosis assessed as reduction in end-expiratory pause at 150 mg/kg, po dosed daily for 28 days by mka noninvasive pulmonary monitoring system based method; type: functional, organism-based
Rattus norvegicus [6] = test: Anti-pulmonary fibrosis activity in Sprague-Dawley rat model of BLM-induced idiopathic pulmonary fibrosis assessed as reduction in mid-expiratory flow at 150 mg/kg, po dosed daily for 28 days by mka noninvasive pulmonary monitoring system based method; type: functional, organism-based
Rattus norvegicus [7] = test: Anti-pulmonary fibrosis activity in Sprague-Dawley rat model of BLM-induced idiopathic pulmonary fibrosis assessed as reduction in peak inspiratory flow at 150 mg/kg, po dosed daily for 28 days by mka noninvasive pulmonary monitoring system based method; type: functional, organism-based
Rattus norvegicus [8] = test: Anti-pulmonary fibrosis activity in Sprague-Dawley rat model of BLM-induced idiopathic pulmonary fibrosis assessed as reduction in peak expiratory flow at 150 mg/kg, po dosed daily for 28 days by mka noninvasive pulmonary monitoring system based method; type: functional, organism-based
Rattus norvegicus [9] = test: Anti-pulmonary fibrosis activity in Sprague-Dawley rat model of BLM-induced idiopathic pulmonary fibrosis assessed as reduction in enhanced pause at 150 mg/kg, po dosed daily for 28 days by mka noninvasive pulmonary monitoring system based method; type: functional, organism-based
Rattus norvegicus [10] = test: Anti-pulmonary fibrosis activity in Sprague-Dawley rat model of BLM-induced idiopathic pulmonary fibrosis assessed as reduction in lung structural damage at 150 mg/kg, po dosed daily for 28 days by H and E staining based assay; type: functional, organism-based
Rattus norvegicus [11] = test: Anti-pulmonary fibrosis activity in Sprague-Dawley rat model of BLM-induced idiopathic pulmonary fibrosis assessed as inhibition of collagen deposition at 150 mg/kg, po dosed daily for 28 days by Masson staining based assay; type: functional, organism-based
[12] = biological target: Dual specificity calcium/calmodulin-dependent 3',5'-cyclic nucleotide phosphodiesterase 1B (Homo sapiens, UniProt Q01064); test: Inhibition of PDE1B (146 to 506 residues) (unknown origin) using [3H]-cGMP substrate incubated for 15 mins by liquid scintillation counting method
[13] = biological target: High affinity cGMP-specific 3',5'-cyclic phosphodiesterase 9A (Homo sapiens, UniProt O76083); test: Inhibition of PDE9A (181 to 506 residues) (unknown origin) using [3H]-cGMP substrate incubated for 15 mins by liquid scintillation counting method
Sequence of High affinity cGMP-specific 3',5'-cyclic phosphodiesterase 9A (O76083 whole entry, the tested form may be a part): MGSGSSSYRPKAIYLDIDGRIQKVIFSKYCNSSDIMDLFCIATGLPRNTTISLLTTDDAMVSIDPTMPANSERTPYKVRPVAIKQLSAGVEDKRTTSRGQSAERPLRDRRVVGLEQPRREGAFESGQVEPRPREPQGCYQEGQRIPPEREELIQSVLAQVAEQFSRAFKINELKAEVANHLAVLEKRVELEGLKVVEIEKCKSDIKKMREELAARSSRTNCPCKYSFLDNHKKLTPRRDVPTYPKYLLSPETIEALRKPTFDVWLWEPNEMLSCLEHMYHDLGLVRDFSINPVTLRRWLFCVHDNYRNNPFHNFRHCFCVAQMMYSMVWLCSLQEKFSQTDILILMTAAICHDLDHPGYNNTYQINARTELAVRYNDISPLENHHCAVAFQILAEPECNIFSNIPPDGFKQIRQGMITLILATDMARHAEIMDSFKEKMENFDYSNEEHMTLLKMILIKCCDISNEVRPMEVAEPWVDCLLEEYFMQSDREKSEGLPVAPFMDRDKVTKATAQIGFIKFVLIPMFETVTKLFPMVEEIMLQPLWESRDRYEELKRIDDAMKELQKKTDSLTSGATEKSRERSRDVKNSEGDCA

T1 sequence (Q14123 whole entry, the tested form may be a part): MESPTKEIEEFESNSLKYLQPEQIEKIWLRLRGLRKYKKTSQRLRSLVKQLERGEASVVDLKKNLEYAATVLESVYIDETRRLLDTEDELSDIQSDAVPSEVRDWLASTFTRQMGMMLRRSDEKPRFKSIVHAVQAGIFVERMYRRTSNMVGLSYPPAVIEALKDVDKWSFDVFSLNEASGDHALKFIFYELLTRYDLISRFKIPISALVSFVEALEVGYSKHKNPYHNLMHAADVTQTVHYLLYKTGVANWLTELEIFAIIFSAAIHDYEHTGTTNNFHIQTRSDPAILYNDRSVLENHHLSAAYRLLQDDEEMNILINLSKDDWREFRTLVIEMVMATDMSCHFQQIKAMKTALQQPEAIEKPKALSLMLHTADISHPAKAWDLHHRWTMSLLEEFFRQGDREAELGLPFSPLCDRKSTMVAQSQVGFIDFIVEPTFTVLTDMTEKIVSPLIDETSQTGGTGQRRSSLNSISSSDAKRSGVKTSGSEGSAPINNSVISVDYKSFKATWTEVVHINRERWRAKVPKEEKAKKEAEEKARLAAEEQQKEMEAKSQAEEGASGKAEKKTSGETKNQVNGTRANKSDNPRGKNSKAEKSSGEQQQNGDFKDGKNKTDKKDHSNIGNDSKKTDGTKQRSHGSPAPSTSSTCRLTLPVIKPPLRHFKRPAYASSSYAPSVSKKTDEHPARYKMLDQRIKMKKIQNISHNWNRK
Sequence of Dual specificity calcium/calmodulin-dependent 3',5'-cyclic nucleotide phosphodiesterase 1B (Q01064 whole entry, the tested form may be a part): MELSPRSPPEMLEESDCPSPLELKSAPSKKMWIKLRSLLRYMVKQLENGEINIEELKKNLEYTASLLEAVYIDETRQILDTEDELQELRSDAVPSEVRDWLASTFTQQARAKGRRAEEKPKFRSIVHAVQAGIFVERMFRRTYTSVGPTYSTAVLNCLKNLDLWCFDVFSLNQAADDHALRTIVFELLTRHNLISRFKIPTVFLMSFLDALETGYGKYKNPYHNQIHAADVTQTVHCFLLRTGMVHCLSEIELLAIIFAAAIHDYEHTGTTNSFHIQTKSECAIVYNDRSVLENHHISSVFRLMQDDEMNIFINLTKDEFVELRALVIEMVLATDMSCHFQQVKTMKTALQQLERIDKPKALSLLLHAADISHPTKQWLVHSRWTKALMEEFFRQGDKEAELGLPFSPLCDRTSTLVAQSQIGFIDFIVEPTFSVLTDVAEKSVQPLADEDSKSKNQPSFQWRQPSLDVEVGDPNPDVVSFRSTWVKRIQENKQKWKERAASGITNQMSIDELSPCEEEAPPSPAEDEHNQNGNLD

Row | SMILES | IC50 [1] | half-life [2] | inhibition [3] | also measured
1 | C[C@H](Nc1nc2c(cnn2C(C)(C)C)c(=O)n1Cc1ccccc1)c1ccc(Cl)cc1 | 0.157 µM |  |  | 
2 | CC(C)n1ncc2c(=O)n(Cc3ccc4c(c3)OCO4)c(N[C@H](C)c3ccc(Cl)cc3)nc21 | 0.02 µM | 1.6 min |  | 
3 | CC(C)(C)n1ncc2c(=O)n(Cc3ccc(F)cc3)c(N[C@@H]3CCc4ccccc43)nc21 |  |  | 54% | 
4 | Cc1ccc(=O)n(-c2ccccc2)c1 |  |  |  | Activity (Rattus norvegicus [4]): Active; Activity (Rattus norvegicus [5]): Active; Activity (Rattus norvegicus [6]): Active; Activity (Rattus norvegicus [7]): Active; Activity (Rattus norvegicus [8]): Active; Activity (Rattus norvegicus [9]): Active; Activity (Rattus norvegicus [10]): Active; Activity (Rattus norvegicus [11]): Active
5 | C[C@@H](Nc1nc2c(cnn2C(C)(C)C)c(=O)n1Cc1ccc2c(c1)OCO2)c1ccc(Cl)cc1 | 0.027 µM | 2.1 min |  | 
6 | CC(C)n1ncc2c(=O)n(Cc3ccncc3)c(N[C@H](C)c3ccc(Cl)cc3)nc21 |  |  | 39% | 
7 | C[C@@H](Nc1nc2c(cnn2C(C)(C)C)c(=O)n1Cc1ccccc1)c1ccc(F)cc1 | 0.0026 µM |  |  | 
8 | C[C@@H](Nc1nc2c(cnn2C(C)(C)C)c(=O)n1C)c1ccc(Cl)cc1 | 0.065 µM |  |  | 
9 | C[C@H](Nc1nc2c(cnn2C(C)(C)C)c(=O)n1Cc1ccccc1)c1ccc(F)cc1 | 0.245 µM |  |  | 
10 | C[C@@H](Nc1nc2c(cnn2C(C)(C)C)c(=O)n1Cc1ccccc1)c1ccc(Cl)cc1 | 0.0015 µM | 8.2 min |  | 
11 | CC(C)(C)n1ncc2c(=O)n(Cc3ccc(F)cc3)c(N[C@H]3CCc4ccccc43)nc21 |  |  | 37% | 
12 | CC1c2ccccc2CCN1c1nc2c(cnn2C(C)(C)C)c(=O)n1Cc1ccc(F)cc1 (stereo not given) |  |  | 16% | 
13 | C[C@@H](Nc1nc2c(cnn2C2CCCC2)c(=O)[nH]1)c1ccc(Cl)cc1 |  |  |  | IC50 [12]: 0.08 µM
14 | CC(C)n1ncc2c(=O)n(Cc3ccccc3)c(N[C@H](C)c3ccc(Cl)cc3)nc21 | 0.0009 µM | 2.4 min |  | 

Continued, in another order:

Row | IC50 [1] | half-life [2] | inhibition [3] | SMILES | also measured
15 | 0.258 µM |  |  | C[C@@H](Nc1nc2c(cnn2C2CCCC2)c(=O)n1C)c1ccc(Cl)cc1 | 
16 |  |  | 5% | CC(C)Cn1c(N[C@H](C)c2ccc(Cl)cc2)nc2c(cnn2C2CCCC2)c1=O | 
17 |  |  | 13% | CCn1c(N[C@H](C)c2ccc(Cl)cc2)nc2c(cnn2C2CCCC2)c1=O | 
18 |  |  | 47% | CC(C)n1ncc2c(=O)n(Cc3ccsc3)c(N[C@H](C)c3ccc(Cl)cc3)nc21 | 
19 | 0.0047 µM | 0.5 min |  | C[C@@H](Nc1nc2c(cnn2C2CCCC2)c(=O)n1Cc1ccccc1)c1ccc(Cl)cc1 | IC50 [12]: 0.023 µM; IC50 [13]: > 10 µM
20 | 0.057 µM | 2.2 min |  | CC(C)n1ncc2c(=O)n(C)c(N[C@H](C)c3ccc(Cl)cc3)nc21 | 
